Test: Microscopic observation of gel compositions for methylparaben crystalline particles
Assay type: physicochemical
Description: Microscopic observations were performed on additional representative batches of brimonidine topical gel compositions and placebo gel compositions containing 1.25% (w/w) carbomer, POBM and other ingredients. The observations have been done on one tube of each batch, with the microscope Axiolab DRBKT Zeiss no. 023733.01 with a camera ICC Zeiss or the microscope Olympus BX60. The microscopic observations were done at 5° C. and room temperature.
Numerous formulations with different ingredients and varying concentrations of the ingredients were made and tested for the presence of the paraben crystals by microscopic observations. The microbiological quality of the formulations was also analyzed by using acceptance-test criteria in preservative-efficacy testing (PET) in the United States Pharmacopeia (USP) and the European Pharmacopoeia (EP).

Question: For `COC(=O)c1ccc([O-])cc1.[Na+]` [Na POBM], which “crystalline particles in formulation” value (methylparaben replaced with Na POBM at 0.3% (w/w)) is on record?
Answer: Its value is “crystalline particles of Na POBM were still observed”.

Question: With `COC(=O)c1ccc(O)cc1` [methylparaben, methyl parahydroxybenzoate] as the compound, how does the recrystallization in formulation (addition of 0.1% of EDTA, POBM at 0.3% (w/w)) read?
Answer: The recrystallization in formulation was “immediate recrystallization”.
